Here are results for 1 compound from patent US7081467B2, “C2-disubstituted indan-1-ones and their derivatives, processes for their preparation and their use as pharmaceuticals” (Sanofi-aventis Deutschland GmbH, priority 2001, dated 2006).

Data set [1] relates to female NMRI mice. As to the kind of experiment: Anorectic action: cumulative milk consumption after 24 h feed removal. In kind it is in vivo. The following applies: feed removed 24 h, dose 20 mg/kg (ip or po, route not specified). The protocol:
The anorectic action was tested on female NMRI mice. After removal of feed for 24 hours, the preparation to be tested was administered intraperitoneally (ip) or by gavage (po). The animals were housed singly and, with free access to drinking water, they were offered evaporated milk 30 minutes after administration of the preparation. The consumption of evaporated milk was determined and the general behavior of the animals was monitored every half an hour for 7 hours. The measured milk consumption was compared to that of vehicle-treated control animals.

As for `CS(=O)(=O)C1(F)Cc2cc(Cl)ccc2C1=O` (stereo not drawn) [Example 1, 5-Chloro-2-fluoro-2-methanesulfonylindan-1-one], the melting point (commonly the temperature of the solid-liquid transition) is 150 °C. Further, the “Reduction in cumulative milk consumption as % of the control” value in data set [1] (compared with vehicle-treated control animals) is 48%. Moreover, the “cumulative milk consumption by treated animals” value in data set [1] (evaporated milk offered 30 min after administration, monitored for 7 hours) is on record as 5/2.00 ml.
